Assay results published in patent US20230391768A2, “IMIDAZOPYRIDINE DERIVATIVES AND AZA-IMIDAZOPYRIDINE DERIVATIVES AS JANUS KINASE 2 INHIBITORS AND USES THEREOF” (Dana-Farber Cancer Institute, Inc., priority 2018, published 2023).

Experiments:
[1] = biological target: HIPK3 (Homo sapiens (Human), UniProt Q9H422); experiment: KINOMEscan; assay type: binding; conditions: read-out: percent of control
Description: (§1) In vitro profiling of Compound I-2 (1 μM) was performed using the DiscoveRx KINOMEscan® platform.

[2] = biological target: ABL1(F317I)-nonphosphorylated (Homo sapiens (Human), UniProt P00519, F317I); experiment: KINOMEscan; assay type: binding; conditions: read-out: percent of control
Description: as §1

[3] = biological target: SBK1 (Homo sapiens (Human), UniProt Q52WX2); experiment: KINOMEscan; assay type: binding; conditions: read-out: percent of control
Description: as §1

[4] = biological target: NEK3 (Homo sapiens (Human), UniProt P51956); experiment: KINOMEscan; assay type: binding; conditions: read-out: percent of control
Description: as §1

[5] = biological target: AXL (Homo sapiens (Human), UniProt P30530); experiment: KINOMEscan; assay type: binding; conditions: read-out: percent of control
Description: as §1

[6] = biological target: FGR (Homo sapiens (Human), UniProt P09769); experiment: KINOMEscan; assay type: binding; conditions: read-out: percent of control
Sequence of FGR (P09769 whole entry): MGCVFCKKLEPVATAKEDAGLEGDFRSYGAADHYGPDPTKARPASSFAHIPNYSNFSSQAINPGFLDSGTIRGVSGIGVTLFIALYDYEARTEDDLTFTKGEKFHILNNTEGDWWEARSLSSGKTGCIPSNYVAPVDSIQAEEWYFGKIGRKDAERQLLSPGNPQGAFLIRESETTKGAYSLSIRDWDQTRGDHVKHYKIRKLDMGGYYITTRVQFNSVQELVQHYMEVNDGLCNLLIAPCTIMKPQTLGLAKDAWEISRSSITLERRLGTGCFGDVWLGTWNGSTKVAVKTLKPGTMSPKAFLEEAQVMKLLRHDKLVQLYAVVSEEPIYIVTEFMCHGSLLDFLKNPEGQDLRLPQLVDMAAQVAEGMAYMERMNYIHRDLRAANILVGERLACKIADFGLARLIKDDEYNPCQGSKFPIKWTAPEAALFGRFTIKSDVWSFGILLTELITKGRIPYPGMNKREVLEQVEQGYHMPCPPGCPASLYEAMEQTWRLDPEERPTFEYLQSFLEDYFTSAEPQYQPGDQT
Description: as §1

[7] = biological target: ABL1(H396P)-phosphorylated (Homo sapiens (Human), UniProt P00519, H396P); experiment: KINOMEscan; assay type: binding; conditions: read-out: percent of control
Description: as §1

[8] = biological target: BMX (Homo sapiens (Human), UniProt P51813); experiment: KINOMEscan; assay type: binding; conditions: read-out: percent of control
Sequence of BMX (P51813 whole entry): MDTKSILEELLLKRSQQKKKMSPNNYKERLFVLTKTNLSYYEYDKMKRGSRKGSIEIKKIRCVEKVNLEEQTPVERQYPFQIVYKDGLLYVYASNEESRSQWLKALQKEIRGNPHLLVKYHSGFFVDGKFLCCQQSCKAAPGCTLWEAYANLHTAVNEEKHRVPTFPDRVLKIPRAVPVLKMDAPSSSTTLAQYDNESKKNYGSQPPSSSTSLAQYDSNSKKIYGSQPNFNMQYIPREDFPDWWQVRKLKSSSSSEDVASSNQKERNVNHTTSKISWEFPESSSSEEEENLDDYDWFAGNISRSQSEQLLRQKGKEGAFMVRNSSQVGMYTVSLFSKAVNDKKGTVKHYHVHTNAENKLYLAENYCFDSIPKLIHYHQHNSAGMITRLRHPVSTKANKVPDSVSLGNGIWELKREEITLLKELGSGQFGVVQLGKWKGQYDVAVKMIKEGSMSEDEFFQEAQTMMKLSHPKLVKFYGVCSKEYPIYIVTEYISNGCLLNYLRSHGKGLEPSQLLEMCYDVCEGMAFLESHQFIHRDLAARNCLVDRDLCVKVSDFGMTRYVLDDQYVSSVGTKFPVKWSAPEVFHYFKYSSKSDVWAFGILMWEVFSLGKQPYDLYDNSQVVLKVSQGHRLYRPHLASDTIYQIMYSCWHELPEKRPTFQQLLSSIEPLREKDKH
Description: as §1

[9] = test system: EGFR(L747-T751del,Sins); experiment: KINOMEscan; assay type: binding; conditions: 1 μM
Description: as §1

[10] = biological target: AURKB (Homo sapiens (Human), UniProt Q96GD4); experiment: KINOMEscan; assay type: binding; conditions: read-out: percent of control
Description: as §1

[11] = biological target: GRK2 (Homo sapiens (Human), UniProt P25098); experiment: KINOMEscan; assay type: binding; conditions: read-out: percent of control
Description: as §1

[12] = biological target: CSNK1G1 (Homo sapiens (Human), UniProt Q9HCP0); experiment: KINOMEscan; assay type: binding; conditions: read-out: percent of control
Description: as §1

[13] = biological target: CLK4 (Homo sapiens (Human), UniProt Q9HAZ1); experiment: KINOMEscan; assay type: binding; conditions: read-out: percent of control
Description: as §1

[14] = biological target: RPS6KA5 (Kin.Dom.1-N-terminal) (Homo sapiens (Human), UniProt O75582); experiment: KINOMEscan; assay type: binding; conditions: read-out: percent of control
Sequence of RPS6KA5 (Kin.Dom.1-N-terminal) (O75582 49-318): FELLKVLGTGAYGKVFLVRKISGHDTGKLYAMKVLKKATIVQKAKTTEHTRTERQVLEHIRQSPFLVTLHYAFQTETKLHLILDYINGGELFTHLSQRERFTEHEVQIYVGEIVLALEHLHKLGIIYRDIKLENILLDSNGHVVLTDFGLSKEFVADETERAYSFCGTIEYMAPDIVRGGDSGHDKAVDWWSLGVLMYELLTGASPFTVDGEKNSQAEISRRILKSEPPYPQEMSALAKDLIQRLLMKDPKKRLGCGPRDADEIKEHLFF
Description: as §1

[15] = biological target: EGFR(L858R, T790M) (Homo sapiens (Human), UniProt P00533, L858R/T790M); experiment: KINOMEscan; assay type: binding; conditions: read-out: percent of control
Description: as §1

[16] = biological target: IRAK4 (Homo sapiens (Human), UniProt Q9NWZ3); experiment: KINOMEscan; assay type: binding; conditions: read-out: percent of control
Description: as §1

[17] = biological target: PIK4CB (Homo sapiens (Human), UniProt Q9UBF8); experiment: KINOMEscan; assay type: binding; conditions: read-out: percent of control
Sequence of PIK4CB (Q9UBF8 whole entry): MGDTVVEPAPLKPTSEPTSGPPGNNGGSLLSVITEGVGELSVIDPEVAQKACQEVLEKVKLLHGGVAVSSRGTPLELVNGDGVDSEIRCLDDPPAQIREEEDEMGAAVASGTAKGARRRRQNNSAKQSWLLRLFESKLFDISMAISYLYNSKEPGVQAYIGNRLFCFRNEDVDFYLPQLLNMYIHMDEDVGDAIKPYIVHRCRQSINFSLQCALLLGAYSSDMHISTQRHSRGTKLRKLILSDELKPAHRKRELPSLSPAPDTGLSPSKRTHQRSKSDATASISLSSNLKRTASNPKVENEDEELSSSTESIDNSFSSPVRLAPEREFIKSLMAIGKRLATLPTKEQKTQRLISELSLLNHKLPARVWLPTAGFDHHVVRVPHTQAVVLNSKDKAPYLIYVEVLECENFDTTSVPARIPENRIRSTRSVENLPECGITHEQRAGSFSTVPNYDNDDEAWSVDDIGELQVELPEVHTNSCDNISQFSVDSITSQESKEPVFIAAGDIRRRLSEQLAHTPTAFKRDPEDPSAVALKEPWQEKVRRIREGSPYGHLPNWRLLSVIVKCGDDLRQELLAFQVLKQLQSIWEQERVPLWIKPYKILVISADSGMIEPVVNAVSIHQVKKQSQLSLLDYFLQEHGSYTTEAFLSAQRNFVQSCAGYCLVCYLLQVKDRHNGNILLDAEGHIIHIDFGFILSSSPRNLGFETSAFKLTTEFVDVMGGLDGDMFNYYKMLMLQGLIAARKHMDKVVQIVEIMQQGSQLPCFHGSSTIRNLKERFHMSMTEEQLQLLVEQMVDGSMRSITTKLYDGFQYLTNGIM
Description: as §1

[18] = biological target: NEK9 (Homo sapiens (Human), UniProt Q8TD19); experiment: KINOMEscan; assay type: binding; conditions: read-out: percent of control
Sequence of NEK9 (Q8TD19 whole entry): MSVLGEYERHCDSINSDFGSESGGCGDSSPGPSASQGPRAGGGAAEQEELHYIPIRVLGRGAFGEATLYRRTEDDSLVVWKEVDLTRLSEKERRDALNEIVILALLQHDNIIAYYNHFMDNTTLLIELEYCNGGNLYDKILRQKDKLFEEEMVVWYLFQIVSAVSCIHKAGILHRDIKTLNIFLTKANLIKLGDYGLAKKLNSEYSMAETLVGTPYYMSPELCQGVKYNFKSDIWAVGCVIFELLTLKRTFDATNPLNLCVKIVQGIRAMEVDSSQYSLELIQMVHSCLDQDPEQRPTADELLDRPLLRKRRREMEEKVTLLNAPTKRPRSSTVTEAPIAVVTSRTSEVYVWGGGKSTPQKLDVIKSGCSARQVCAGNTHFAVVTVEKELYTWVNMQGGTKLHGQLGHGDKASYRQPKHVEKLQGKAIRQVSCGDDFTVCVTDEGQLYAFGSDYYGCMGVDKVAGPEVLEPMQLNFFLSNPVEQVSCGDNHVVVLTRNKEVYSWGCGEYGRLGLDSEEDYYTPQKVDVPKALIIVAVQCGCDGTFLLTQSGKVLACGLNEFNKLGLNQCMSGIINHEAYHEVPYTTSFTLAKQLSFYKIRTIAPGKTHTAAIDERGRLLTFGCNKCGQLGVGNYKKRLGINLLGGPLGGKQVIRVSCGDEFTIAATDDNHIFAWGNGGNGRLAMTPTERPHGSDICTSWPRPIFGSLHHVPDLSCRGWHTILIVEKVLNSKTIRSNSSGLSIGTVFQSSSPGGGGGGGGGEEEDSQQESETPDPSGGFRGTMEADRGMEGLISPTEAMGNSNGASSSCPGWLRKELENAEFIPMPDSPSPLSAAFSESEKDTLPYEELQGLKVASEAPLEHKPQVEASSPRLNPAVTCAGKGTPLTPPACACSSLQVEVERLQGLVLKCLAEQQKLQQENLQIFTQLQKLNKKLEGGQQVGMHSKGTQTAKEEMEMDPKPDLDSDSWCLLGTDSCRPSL
Description: as §1

[19] = biological target: JAK2(JH1domain-catalytic (Homo sapiens (Human), UniProt O60674)); experiment: KINOMEscan; assay type: binding; conditions: read-out: percent of control
Description: as §1

[20] = biological target: ABL1(T315I)-nonphosphorylated (Homo sapiens (Human), UniProt P00519, T315I); experiment: KINOMEscan; assay type: binding; conditions: read-out: percent of control
Description: as §1

[21] = biological target: PIK3CA(E542K) (Homo sapiens (Human), UniProt P42336, E542K); experiment: KINOMEscan; assay type: binding; conditions: read-out: percent of control
Sequence of PIK3CA(E542K) (P42336 whole entry E542K): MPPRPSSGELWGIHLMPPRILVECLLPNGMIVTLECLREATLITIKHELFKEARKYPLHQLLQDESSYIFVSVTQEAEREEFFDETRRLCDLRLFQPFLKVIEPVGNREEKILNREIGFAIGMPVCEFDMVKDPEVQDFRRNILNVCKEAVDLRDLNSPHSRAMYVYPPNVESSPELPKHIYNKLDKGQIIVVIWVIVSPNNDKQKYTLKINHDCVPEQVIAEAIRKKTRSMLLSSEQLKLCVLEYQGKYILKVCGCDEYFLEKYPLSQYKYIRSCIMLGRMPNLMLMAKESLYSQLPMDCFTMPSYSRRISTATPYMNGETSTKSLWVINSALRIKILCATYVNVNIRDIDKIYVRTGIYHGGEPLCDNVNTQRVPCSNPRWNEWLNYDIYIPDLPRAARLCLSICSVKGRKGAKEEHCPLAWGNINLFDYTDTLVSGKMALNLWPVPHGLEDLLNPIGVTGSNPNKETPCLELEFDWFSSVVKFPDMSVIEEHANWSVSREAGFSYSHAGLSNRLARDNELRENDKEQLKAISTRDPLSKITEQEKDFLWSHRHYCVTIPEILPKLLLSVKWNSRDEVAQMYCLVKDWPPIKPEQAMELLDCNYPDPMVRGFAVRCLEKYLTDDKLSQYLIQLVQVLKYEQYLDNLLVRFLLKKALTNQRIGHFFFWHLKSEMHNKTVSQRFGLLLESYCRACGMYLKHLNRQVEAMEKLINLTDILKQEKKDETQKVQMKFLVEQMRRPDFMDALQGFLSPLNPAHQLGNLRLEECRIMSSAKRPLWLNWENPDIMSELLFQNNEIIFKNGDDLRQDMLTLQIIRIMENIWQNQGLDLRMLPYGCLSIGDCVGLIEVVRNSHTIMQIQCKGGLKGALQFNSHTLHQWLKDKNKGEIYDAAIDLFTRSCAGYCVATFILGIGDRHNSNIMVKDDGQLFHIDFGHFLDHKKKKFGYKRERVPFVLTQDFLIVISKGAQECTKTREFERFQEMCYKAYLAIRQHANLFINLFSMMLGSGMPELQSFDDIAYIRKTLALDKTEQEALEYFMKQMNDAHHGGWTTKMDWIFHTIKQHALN
Description: as §1

[22] = biological target: DMPK2 (Homo sapiens (Human), UniProt Q6DT37); experiment: KINOMEscan; assay type: binding; conditions: read-out: percent of control
Description: as §1

[23] = biological target: PKNB (M.tuberculosis) (Mycobacterium tuberculosis (strain ATCC 25618 / H37Rv), UniProt P9WI81); experiment: KINOMEscan; assay type: binding; conditions: read-out: percent of control
Description: as §1

[24] = biological target: MST4 (Homo sapiens (Human), UniProt Q9P289); experiment: KINOMEscan; assay type: binding; conditions: read-out: percent of control
Description: as §1

[25] = biological target: EPHA7 (Homo sapiens (Human), UniProt Q15375); experiment: KINOMEscan; assay type: binding; conditions: read-out: percent of control
Description: as §1

[26] = biological target: MST1R (Homo sapiens (Human), UniProt Q04912); experiment: KINOMEscan; assay type: binding; conditions: read-out: percent of control
Description: as §1

[27] = biological target: HUNK (Homo sapiens (Human), UniProt P57058); experiment: KINOMEscan; assay type: binding; conditions: read-out: percent of control
Description: as §1

[28] = biological target: ERK8 (Homo sapiens (Human), UniProt Q8TD08); experiment: KINOMEscan; assay type: binding; conditions: read-out: percent of control
Description: as §1

[29] = biological target: PRKCI (Homo sapiens (Human), UniProt P41743); experiment: KINOMEscan; assay type: binding; conditions: read-out: percent of control
Description: as §1

[30] = biological target: DYRK1B (Homo sapiens (Human), UniProt Q9Y463); experiment: KINOMEscan; assay type: binding; conditions: read-out: percent of control
Description: as §1

[31] = biological target: CSNK2A1 (Homo sapiens (Human), UniProt P68400); experiment: KINOMEscan; assay type: binding; conditions: read-out: percent of control
Sequence of CSNK2A1 (P68400 whole entry): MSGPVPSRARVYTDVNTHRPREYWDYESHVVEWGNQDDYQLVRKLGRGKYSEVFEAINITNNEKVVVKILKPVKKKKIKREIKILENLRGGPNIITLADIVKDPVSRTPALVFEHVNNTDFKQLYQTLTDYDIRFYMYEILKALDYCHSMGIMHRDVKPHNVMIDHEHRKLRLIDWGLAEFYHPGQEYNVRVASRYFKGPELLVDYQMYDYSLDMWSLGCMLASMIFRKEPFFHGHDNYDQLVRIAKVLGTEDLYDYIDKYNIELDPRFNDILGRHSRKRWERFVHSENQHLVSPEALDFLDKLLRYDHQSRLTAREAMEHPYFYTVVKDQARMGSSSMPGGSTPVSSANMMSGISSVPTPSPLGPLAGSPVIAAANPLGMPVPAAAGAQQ
Description: as §1

[32] = biological target: EGFR(E746-A750del) (Homo sapiens (Human), UniProt P00533, DEL746-750); experiment: KINOMEscan; assay type: binding; conditions: read-out: percent of control
Description: as §1

[33] = biological target: JAK1 (JH1domain-catalytic) (Homo sapiens (Human), UniProt P23458); experiment: KINOMEscan; assay type: binding; conditions: read-out: percent of control
Sequence of JAK1 (JH1domain-catalytic) (P23458 875-1153): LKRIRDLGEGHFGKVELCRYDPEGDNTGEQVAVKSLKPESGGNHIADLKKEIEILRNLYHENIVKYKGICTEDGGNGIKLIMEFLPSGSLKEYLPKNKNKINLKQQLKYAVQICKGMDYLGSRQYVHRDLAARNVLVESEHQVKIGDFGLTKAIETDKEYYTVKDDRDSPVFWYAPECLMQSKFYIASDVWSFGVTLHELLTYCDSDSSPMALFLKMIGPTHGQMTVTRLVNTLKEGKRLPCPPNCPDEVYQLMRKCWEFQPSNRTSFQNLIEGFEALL
Description: as §1

[34] = biological target: SLK (Homo sapiens (Human), UniProt Q9H2G2); experiment: KINOMEscan; assay type: binding; conditions: read-out: percent of control
Description: as §1

[35] = biological target: BRK (Homo sapiens (Human), UniProt Q13882); experiment: KINOMEscan; assay type: binding; conditions: read-out: percent of control
Description: as §1

[36] = biological target: RIOK1 (Homo sapiens (Human), UniProt Q9BRS2); experiment: KINOMEscan; assay type: binding; conditions: read-out: percent of control
Description: as §1

[37] = biological target: JAK2 (Homo sapiens (Human), UniProt O60674); experiment: JAK2 Z-Lyte biochemical assay; conditions: commercial JAK2 Z-Lyte assay from Invitrogen
Description: The JAK2 Z-Lyte biochemical assay was performed according to manufacturer's instructions (Life Technologies).

CCN1CCN(Cc2cc(NC(=O)c3ccc(C)c(-c4ccc5nc(NC(=O)C6CC6)cn5n4)c3)cc(C(F)(F)F)c2)CC1 [Compound I-2, 3-(2-(cyclopropanecarboxamido)imidazo[1,2-b]pyridazin-6-yl)-N-(3-((4-ethylpiperazin-1-yl)methyl)-5-(trifluoromethyl)phenyl)-4-methylbenzamide]
remaining binding at 1 µM [1]: 56%
remaining binding at 1 µM [2]: 0%
remaining binding at 1 µM [3]: 99%
remaining binding at 1 µM [4]: 100%
remaining binding at 1 µM [5]: 2.1%
remaining binding at 1 µM [6]: 0.15%
remaining binding at 1 µM [7]: 0.3%
remaining binding at 1 µM [8]: 65%
percent of control [9]: 29%
remaining binding at 1 µM [10]: 97%
remaining binding at 1 µM [11]: 94%
remaining binding at 1 µM [12]: 100%
remaining binding at 1 µM [13]: 11%
remaining binding at 1 µM [14]: 73%
remaining binding at 1 µM [15]: 100%
remaining binding at 1 µM [16]: 26%
remaining binding at 1 µM [17]: 97%
remaining binding at 1 µM [18]: 100%
remaining binding at 1 µM [19]: 7.9%
remaining binding at 1 µM [20]: 0%
remaining binding at 1 µM [21]: 96%
remaining binding at 1 µM [22]: 87%
remaining binding at 1 µM [23]: 78%
remaining binding at 1 µM [24]: 92%
remaining binding at 1 µM [25]: 3.3%
remaining binding at 1 µM [26]: 83%
remaining binding at 1 µM [27]: 80%
remaining binding at 1 µM [28]: 2.2%
remaining binding at 1 µM [29]: 66%
remaining binding at 1 µM [30]: 62%
remaining binding at 1 µM [31]: 98%
remaining binding at 1 µM [32]: 29%
remaining binding at 1 µM [33]: 19%
remaining binding at 1 µM [34]: 1.6%
remaining binding at 1 µM [35]: 100%
remaining binding at 1 µM [36]: 100%
IC50 [37]: 190 nM

CCN1CCN(Cc2cc(NC(=O)c3ccc(C)c(-c4ccc5nc(NC(=O)C6CC6)cn5c4)c3)cc(C(F)(F)F)c2)CC1 [Compound I-6, 3-(2-(cyclopropanecarboxamido)imidazo[1,2-a]pyridin-6-yl)-N-(3-((4-ethylpiperazin-1-yl)methyl)-5-(trifluoromethyl)phenyl)-4-methylbenzamide]
remaining binding at 1 µM [1]: 98%
remaining binding at 1 µM [2]: 0%
remaining binding at 1 µM [3]: 97%
remaining binding at 1 µM [4]: 96%
remaining binding at 1 µM [5]: 3.9%
remaining binding at 1 µM [6]: 0%
remaining binding at 1 µM [7]: 0.25%
remaining binding at 1 µM [8]: 42%
percent of control [9]: 12%
remaining binding at 1 µM [10]: 80%
remaining binding at 1 µM [11]: 63%
remaining binding at 1 µM [12]: 96%
remaining binding at 1 µM [13]: 28%
remaining binding at 1 µM [14]: 66%
remaining binding at 1 µM [15]: 59%
remaining binding at 1 µM [16]: 33%
remaining binding at 1 µM [17]: 96%
remaining binding at 1 µM [18]: 92%
remaining binding at 1 µM [19]: 6.5%
remaining binding at 1 µM [20]: 0%
remaining binding at 1 µM [21]: 100%
remaining binding at 1 µM [22]: 100%
remaining binding at 1 µM [23]: 91%
remaining binding at 1 µM [24]: 100%
remaining binding at 1 µM [25]: 2%
remaining binding at 1 µM [26]: 100%
remaining binding at 1 µM [27]: 96%
remaining binding at 1 µM [28]: 3.1%
remaining binding at 1 µM [29]: 100%
remaining binding at 1 µM [30]: 87%
remaining binding at 1 µM [31]: 100%
remaining binding at 1 µM [32]: 25%
remaining binding at 1 µM [33]: 20%
remaining binding at 1 µM [34]: 2.4%
remaining binding at 1 µM [35]: 91%
remaining binding at 1 µM [36]: 95%
IC50 [37]: 284 nM
